Measured values from patent publication US11840686B2, “Modulation of prekallikrein (PKK) expression” (Ionis Pharmaceuticals, Inc., priority 2013, dated 2023).
Strand notation (5' to 3'): a small letter for the sugar, then the base; units joined by * are phosphorothioate-linked, units joined directly phosphodiester-linked; [ ] holds rarer units or linkages, { } end groups; capitals alone tell only the bases. e = 2'-O-(2-methoxyethyl) (MOE); [5mC] = 5-methylcytosine; d = 2'-deoxy (DNA)

Tested on: human PKK mRNA
Assay: Antisense inhibition of human PKK mRNA in HepaRG cells, 5,000 nM (Example 2)
Type: cell-based
Conditions: HepaRG cells, 5,000 nM antisense oligonucleotide, human PKK mRNA; Table 18
In short: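 Percent inhibition of PKK mRNA is reported relative to untreated cells, after adjustment for total RNA by RIBOGREEN. Gapmers of 16–20 nucleosides with 2′-MOE wings were delivered at 5,000 nM by electroporation into HepaRG cells and left for roughly 24 hours before RNA isolation.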

Substance | % inhibition
548706 (DNA e[5mC]*eT*eA*dG*dT*dT*dT*d[5mC]*d[5mC]*dT*dA*dT*dA*eA*e[5mC]*eT; antisense) [compound 548706] | 0%

Same assay, conditions: HepaRG cells, 5,000 nM antisense oligonucleotide; 5-10-5 gapmers; Table 16

Substance | % inhibition
547686 (antisense e[5mC]*eT*eG*eT*e[5mC]*d[5mC]*dT*dA*dT*dA*dA*d[5mC]*dT*dA*dT*eA*eT*e[5mC]*eA*e[5mC]) [compound 547686] | 36%
546955 (eA*e[5mC]*eA*eA*eG*dG*d[5mC]*dT*dT*d[5mC]*dG*dA*dG*dG*dA*e[5mC]*eA*eG*e[5mC]*e[5mC]; antisense) [compound 546955] | 49%
547693 (antisense eT*e[5mC]*eA*e[5mC]*eT*dG*dT*dA*d[5mC]*d[5mC]*dT*dA*dT*dA*dA*e[5mC]*eT*eG*eT*eA) [compound 547693] | 61%
547689 (antisense eG*eT*eA*eA*e[5mC]*dA*dA*dT*dA*dT*d[5mC]*dA*d[5mC]*dT*dG*eT*e[5mC]*e[5mC]*eT*eA) [compound 547689] | 73%
547699 (antisense eT*eA*e[5mC]*e[5mC]*eT*dA*dT*dA*dA*d[5mC]*dT*dA*dT*dA*dA*e[5mC]*eA*eA*eT*eA) [compound 547699] | 10%

Same assay, conditions: HepaRG cells, 5,000 nM antisense oligonucleotide; 5-10-5 gapmers; Table 17

Substance | % inhibition
546999 (eG*e[5mC]*eA*eG*e[5mC]*dT*d[5mC]*dA*d[5mC]*dA*d[5mC]*d[5mC]*d[5mC]*dA*dA*eA*eA*eA*eG*e[5mC]; antisense) [compound 546999] | 29%
547018 (eG*eG*eT*eG*eG*d[5mC]*dG*dG*dG*dA*dT*dT*dG*dG*dT*eG*eG*eT*eG*eG; antisense) [compound 547018] | 58%
547725 (eA*eT*eT*eG*eG*dT*dG*dG*dT*dG*dG*dG*dA*dT*dT*eG*eG*eT*eG*eG; antisense) [compound 547725] | 26%
547727 (eT*eG*eG*e[5mC]*eA*dG*dG*dA*dT*dT*dG*dG*dT*dG*dG*eT*eG*eG*eA*eA; antisense) [compound 547727] | 0%

Same assay, conditions: HepaRG cells, electroporation with 5,000 nM antisense oligonucleotide, approximately 24 hours, PKK mRNA by RT-PCR (RTS3454), relative to untreated control cells; Table 5 experiment

Substance | % inhibition
546143 (eG*eG*eA*eA*eA*d[5mC]*dT*dG*dT*dA*dG*d[5mC]*dA*dA*dA*e[5mC]*eA*eA*eG*eG; antisense) [compound 546143] | 46%
546154 (eT*eG*eG*e[5mC]*eA*dG*dT*dA*dT*dT*dG*dG*dG*d[5mC]*dA*eT*eT*eT*eG*eG; antisense) [compound 546154] | 85%

Same assay, conditions: HepaRG cells, electroporation with 5,000 nM antisense oligonucleotide, approximately 24 hours, PKK mRNA by RT-PCR (RTS3454), relative to untreated control cells; Table 6 experiment

Substance | % inhibition
546193 (antisense e[5mC]*eA*eT*eT*eA*dA*dA*dA*dT*dT*dG*dA*d[5mC]*dT*d[5mC]*e[5mC]*eT*e[5mC]*eT*e[5mC]) [compound 546193] | 57%
547347 (antisense eA*e[5mC]*eT*eG*e[5mC]*dT*dA*dA*d[5mC]*d[5mC]*dT*dT*dA*dG*dA*e[5mC]*eA*e[5mC]*eA*eT) [compound 547347] | 82%
547320 (antisense eA*eG*eG*eA*eA*dT*dG*dT*d[5mC]*d[5mC]*dA*dG*dA*dA*dA*e[5mC]*eT*eG*e[5mC]*eA) [compound 547320] | 73%
547316 (antisense eG*eA*eA*eA*e[5mC]*dT*dG*d[5mC]*dA*d[5mC]*d[5mC]*dT*dG*dT*dT*e[5mC]*eG*eA*eT*eG) [compound 547316] | 75%
547329 (antisense eT*eT*eA*eT*eT*dT*dG*dA*dT*dG*dA*d[5mC]*d[5mC]*dA*d[5mC]*eA*eT*eT*eG*e[5mC]) [compound 547329] | 24%

Same assay, conditions: HepaRG cells, electroporation, 5,000 nM antisense oligonucleotide, approx. 24 hours, primer probe set RTS3454, relative to untreated control cells; Table 12

Substance | % inhibition
546498 (e[5mC]*e[5mC]*eA*eT*eG*d[5mC]*dA*dT*dA*d[5mC]*dT*d[5mC]*dG*d[5mC]*d[5mC]*eT*eT*eT*eG*eT; antisense) [compound 546498] | 65%
547547 (antisense eG*e[5mC]*eA*eT*eA*d[5mC]*dT*d[5mC]*dG*d[5mC]*d[5mC]*dT*dT*dT*dG*eT*eG*eA*eT*eG) [compound 547547] | 42%
547544 (antisense eT*e[5mC]*eG*e[5mC]*e[5mC]*dT*dT*dT*dG*dT*dG*dA*dT*dG*d[5mC]*eG*eA*eT*eT*eT) [compound 547544] | 15%
546450 (eG*eT*eG*eG*e[5mC]*d[5mC]*d[5mC]*dT*d[5mC]*dT*dT*dA*dA*dG*dT*e[5mC]*eA*e[5mC]*e[5mC]*eA; antisense) [compound 546450] | 73%
546461 (eA*eT*eG*eT*eT*dT*dA*dT*dT*dG*dT*dA*dG*d[5mC]*d[5mC]*eA*eT*eA*e[5mC]*eA; antisense) [compound 546461] | 53%
546695 (eG*eG*eG*eA*e[5mC]*dA*dA*dT*d[5mC]*dT*d[5mC]*d[5mC]*dA*d[5mC]*d[5mC]*e[5mC]*e[5mC]*e[5mC]*eG*eA; antisense) [compound 546695] | 36%

Same assay, conditions: Table 7; HepaRG cells, electroporation with 5,000 nM antisense oligonucleotide, approx. 24 hours; PKK mRNA by RT-PCR (RTS3454), relative to untreated control cells

Substance | % inhibition
547408 (eT*e[5mC]*eA*e[5mC]*eA*dT*dT*d[5mC]*dA*dA*dT*dT*d[5mC]*dT*dT*e[5mC]*eT*e[5mC]*e[5mC]*eT; antisense) [compound 547408] | 84%

Same assay, conditions: Table 9 experiment; HepaRG cells, 20,000 cells per well, electroporation with 5,000 nM antisense oligonucleotide, approx. 24 hours; PKK mRNA by RT-PCR (RTS3454), relative to untreated control cells

Substance | % inhibition
547482 (antisense e[5mC]*e[5mC]*e[5mC]*e[5mC]*eT*dT*d[5mC]*dT*dT*dT*dA*dT*dA*dG*d[5mC]*e[5mC]*eA*eG*e[5mC]*eA) [compound 547482] | 90%
547484 (antisense e[5mC]*eT*eA*eA*eG*dG*dG*dA*d[5mC]*d[5mC]*dA*d[5mC]*d[5mC]*dT*dG*eA*eA*eT*e[5mC]*eT) [compound 547484] | 69%
546348 (antisense eG*e[5mC]*eA*eA*eA*d[5mC]*dT*dA*dA*dG*dG*dG*dA*d[5mC]*d[5mC]*eA*e[5mC]*e[5mC]*eT*eG) [compound 546348] | 79%
547488 (antisense eA*e[5mC]*eA*e[5mC]*e[5mC]*dA*dG*dG*dT*dT*dG*d[5mC]*dT*d[5mC]*d[5mC]*e[5mC]*eT*eG*e[5mC]*eG) [compound 547488] | 71%
547452 (antisense eG*eT*eT*eT*eT*dG*dG*dT*dG*dA*dA*dT*dA*dA*dT*eA*eA*eT*e[5mC]*eT) [compound 547452] | 47%
546325 (antisense e[5mC]*eA*eG*eT*eT*dG*dG*dT*dA*dT*dA*dA*dA*dT*dT*eG*eT*eG*e[5mC]*eT) [compound 546325] | 74%
547460 (antisense e[5mC]*eT*eG*eG*eA*dG*dT*dT*dT*dT*dA*dT*d[5mC]*dA*dA*eG*eG*e[5mC]*eG*eA) [compound 547460] | 72%

Same assay, conditions: Table 10 experiment; HepaRG cells, 20,000 cells per well, electroporation with 5,000 nM antisense oligonucleotide, approx. 24 hours; PKK mRNA by RT-PCR (RTS3454), relative to untreated control cells

Substance | % inhibition
547482 (antisense e[5mC]*e[5mC]*e[5mC]*e[5mC]*eT*dT*d[5mC]*dT*dT*dT*dA*dT*dA*dG*d[5mC]*e[5mC]*eA*eG*e[5mC]*eA) [compound 547482] | 65%
547484 (antisense e[5mC]*eT*eA*eA*eG*dG*dG*dA*d[5mC]*d[5mC]*dA*d[5mC]*d[5mC]*dT*dG*eA*eA*eT*e[5mC]*eT) [compound 547484] | 64%
546348 (antisense eG*e[5mC]*eA*eA*eA*d[5mC]*dT*dA*dA*dG*dG*dG*dA*d[5mC]*d[5mC]*eA*e[5mC]*e[5mC]*eT*eG) [compound 546348] | 76%
547488 (antisense eA*e[5mC]*eA*e[5mC]*e[5mC]*dA*dG*dG*dT*dT*dG*d[5mC]*dT*d[5mC]*d[5mC]*e[5mC]*eT*eG*e[5mC]*eG) [compound 547488] | 72%
547452 (antisense eG*eT*eT*eT*eT*dG*dG*dT*dG*dA*dA*dT*dA*dA*dT*eA*eA*eT*e[5mC]*eT) [compound 547452] | 62%
546325 (antisense e[5mC]*eA*eG*eT*eT*dG*dG*dT*dA*dT*dA*dA*dA*dT*dT*eG*eT*eG*e[5mC]*eT) [compound 546325] | 79%
547460 (antisense e[5mC]*eT*eG*eG*eA*dG*dT*dT*dT*dT*dA*dT*d[5mC]*dA*dA*eG*eG*e[5mC]*eG*eA) [compound 547460] | 75%

Same assay, conditions: Table 13; human PKK mRNA in HepaRG cells; 5-10-5 gapmers

Substance | % inhibition
546822 (eA*e[5mC]*eT*eA*eG*dT*dT*dT*d[5mC]*d[5mC]*dT*dA*dT*dA*dA*e[5mC]*eT*eG*e[5mC]*eT; antisense) [compound 546822] | 32%

Same assay, conditions: human PKK mRNA in HepaRG cells; 5-10-5 gapmers; Table 14

Substance | % inhibition
546871 (eA*e[5mC]*eT*eG*eT*dA*d[5mC]*d[5mC]*dT*dA*dT*dA*dA*d[5mC]*dT*e[5mC]*eT*eA*eA*e[5mC]; antisense) [compound 546871] | 73%
547597 (antisense e[5mC]*eA*eA*eT*eA*dT*d[5mC]*dA*d[5mC]*dT*dG*dT*d[5mC]*d[5mC]*dT*eA*eT*eA*eT*e[5mC]) [compound 547597] | 29%
546866 (eG*eT*eT*eT*e[5mC]*d[5mC]*dT*dA*dT*dA*dA*d[5mC]*dT*dA*dT*eA*eA*e[5mC]*eA*eA; antisense) [compound 546866] | 35%
547591 (e[5mC]*e[5mC]*eT*eA*eT*dA*dA*d[5mC]*dT*dA*dT*dA*dA*d[5mC]*dA*eG*eT*eA*eT*e[5mC]; antisense) [compound 547591] | 23%

Same assay, conditions: human PKK mRNA, HepaRG cells, 5,000 nM antisense oligonucleotide, Table 18

Substance | % inhibition
548769 (antisense eA*eG*eT*eA*dT*d[5mC]*dA*d[5mC]*dT*dG*dT*d[5mC]*d[5mC]*eT*eA*eT*eA) [compound 548769] | 64%
548774 (antisense e[5mC]*e[5mC]*eT*eA*dT*dA*dA*d[5mC]*dT*dA*dT*dA*dA*e[5mC]*eA*eG*eT) [compound 548774] | 0%
548771 (antisense eA*eT*eA*eA*d[5mC]*dA*dG*dT*dA*dT*d[5mC]*dA*d[5mC]*eT*eG*eT*e[5mC]) [compound 548771] | 62%

Same assay, conditions: human PKK mRNA, HepaRG cells; 5-10-5 motif oligonucleotides targeting SEQ ID NO: 1 and 10

Substance | % inhibition
546909 (eA*eA*e[5mC]*eA*eA*dT*dA*dT*d[5mC]*dA*d[5mC]*dT*dG*dT*dA*e[5mC]*e[5mC]*eT*eT*eT; antisense) [compound 546909] | 44%
547661 (eT*eA*eA*e[5mC]*eT*dA*dT*dA*dA*d[5mC]*dA*dG*dT*dA*dT*e[5mC]*eA*e[5mC]*e[5mC]*eG; antisense) [compound 547661] | 80%
547656 (e[5mC]*eA*eA*eT*eA*dT*d[5mC]*dA*d[5mC]*dT*dG*dT*d[5mC]*d[5mC]*dT*eA*eT*eA*eA*e[5mC]; antisense) [compound 547656] | 42%
